Marks after values point to notes of the source that are not given here.
Columns and labels:
[1] = test system: Frings mouse; experiment: Rotarod motor impairment (toxicity) in the Frings mouse; type: in vivo; details: for Number Showing Toxicity of Eight Mice Tested at 30 minutes / Number Showing Toxicity of Eight Mice Tested at 120 minutes: Table 5; for Number Showing Toxicity of Four Mice Tested at 30 minutes / Number Showing Toxicity of Four Mice Tested at 120 minutes: Table 4
Method: (§1) The average seizure score can be calculated for each group of mice employed in the dose-response study. At each dose, mice are also tested on a rotarod for testing of motor impairment (toxicity). Testing for motor impairment on the rotarod involves placing a mouse for a three-minute trial period on a one-inch diameter rod rotating at six revolutions per minute. If the mouse falls off of the rotating rod three times within the three-minute time period, it is considered a toxic response.

[2] = test system: Frings audiogenic seizure-susceptible mouse; experiment: Frings audiogenic seizure-susceptible mouse model of epilepsy; type: in vivo; details: for anticonvulsant activity when administered orally: oral
Text: One useful model is provided by the Frings audiogenic seizure-susceptible mouse, a model of reflex epilepsy. At the time of testing, individual mice are placed into a round Plexiglas chamber and exposed to a sound stimulus of 110 decibels, 11 kHz, for 20 seconds. Animals not displaying tonic hindlimb extensions were considered protected. In addition, the seizure score for each mouse can be recorded as: (1) running for less than 10 seconds; (2) running for greater than 10 seconds; (3) clonic activity of limbs and/or vibrissae; (4) forelimb extension/hindlimb flexion; and (5) hindlimb extension.
as §1

[3] = test system: rat; experiment: Rotarod Test in the Rat; type: in vivo; details: for Number of Rats Falling: ten rats per group
Method: This is a test of neurological deficits using the method described by Dunham et al., J. Am. Pharm. Assoc. 46: 208-09 (1957). Rats or mice are placed on a rod rotating at a speed of eight turns per minute. The number of animals which drop off the rod before three minutes is counted and the drop-off times are recorded (maximum: 180 seconds). Ten rats are studied per group and the test is performed blind. The test compound is administered i.p. 60 minutes prior to testing. Diazepam, a benzodiazepine, is administered at 8 mg/kg, i.p., as the reference substance. A control group administered the vehicle is also included in the study.

[4] = reported in the literature; cited from earlier work
[5] = in vivo; cited from earlier work
[6] = 4 mg/kg i.p. 60 minutes before test
[7] = 8 mg/kg i.p. 60 minutes before test

CC(C)C(C)C(N)=O (stereo not shown) [2-methylisovaleramide]
Number Showing Toxicity of Eight Mice Tested at 30 minutes ([1]; 30 mg/kg oral): 0 | Number Showing Toxicity of Eight Mice Tested at 120 minutes ([1]; 30 mg/kg oral): 0 | Number Showing Toxicity of Eight Mice Tested at 30 minutes ([1]; 100 mg/kg oral): 0 | Number Showing Toxicity of Eight Mice Tested at 120 minutes ([1]; 100 mg/kg oral): 0 | Number Showing Toxicity of Eight Mice Tested at 30 minutes ([1]; 300 mg/kg oral): 2^a | Number Showing Toxicity of Eight Mice Tested at 120 minutes ([1]; 300 mg/kg oral): 0 | signs of toxicity in the animals counted as toxic ([1]; Table 5 footnote, 300 mg/kg oral, 30 minutes): ^ano definitive signs of toxicity such as sedation or ataxia, animals just fell off | Number Protected of Four Mice Tested at 30 minutes ([2]; Table 5, 30 mg/kg oral): 0 | Number Protected of Four Mice Tested at 120 minutes ([2]; Table 5, 30 mg/kg oral): 0 | Number Protected of Four Mice Tested at 30 minutes ([2]; Table 5, 100 mg/kg oral): 1 | Number Protected of Four Mice Tested at 120 minutes ([2]; Table 5, 100 mg/kg oral): 0 | Number Protected of Four Mice Tested at 30 minutes ([2]; Table 5, 300 mg/kg oral): 4 | Number Protected of Four Mice Tested at 120 minutes ([2]; Table 5, 300 mg/kg oral): 1 | anticonvulsant activity when administered orally [2]: displayed anticonvulsant activity when administered orally

CN1C(=O)CN=C(c2ccccc2)c2cc(Cl)ccc21 [Diazepam, diazepam]
Drop-Off Time % change from control [3, 6]: −59% | Drop-Off Time (sec) Mean ± S.E.M. [3, 6]: 55.8 ± 20.6^d sec | Number of Rats Falling [3, 6]: 9 | Drop-Off Time % change from control [3, 7]: −88% | Drop-Off Time (sec) Mean ± S.E.M. [3, 7]: 16.3 ± 6.4^f sec | Number of Rats Falling [3, 7]: 10+ ^e | rotarod performance in the rat ([3]; i.p. 60 minutes before test, isovaleramide 128, 256 and 512 mg/kg): dose-dependently decreased rotarod performance

CC(C)CC(=O)O [Isovaleric acid, isovaleric acid]
anticonvulsant activity [4]: inactive as an anticonvulsant

CCN(CC)C(=O)CC(C)C [N,N-Diethyl isovaleramide]
CNS properties [5]: CNS stimulant (convulsant) properties

CC(C)CC(=O)NCC(N)=O [N-(2-acetamido)isovaleramide]
Number Showing Toxicity of Four Mice Tested at 30 minutes ([1]; 30 mg/kg oral): 0 | Number Showing Toxicity of Four Mice Tested at 120 minutes ([1]; 30 mg/kg oral): 0 | Number Showing Toxicity of Four Mice Tested at 30 minutes ([1]; 100 mg/kg oral): 0 | Number Showing Toxicity of Four Mice Tested at 120 minutes ([1]; 100 mg/kg oral): 0 | Number Showing Toxicity of Four Mice Tested at 30 minutes ([1]; 300 mg/kg oral): 0 | Number Showing Toxicity of Four Mice Tested at 120 minutes ([1]; 300 mg/kg oral): 0 | Number Showing Toxicity of Four Mice Tested at 30 minutes ([1]; 1000 mg/kg oral): 1 | Number Showing Toxicity of Four Mice Tested at 120 minutes ([1]; 1000 mg/kg oral): 0 | Number Protected of Four Mice Tested at 30 minutes ([2]; Table 4, 30 mg/kg oral): 0 | Number Protected of Four Mice Tested at 120 minutes ([2]; Table 4, 30 mg/kg oral): 0 | Number Protected of Four Mice Tested at 30 minutes ([2]; Table 4, 100 mg/kg oral): 0 | Number Protected of Four Mice Tested at 120 minutes ([2]; Table 4, 100 mg/kg oral): 0 | Number Protected of Four Mice Tested at 30 minutes ([2]; Table 4, 300 mg/kg oral): 0 | Number Protected of Four Mice Tested at 120 minutes ([2]; Table 4, 300 mg/kg oral): 0 | Number Protected of Four Mice Tested at 30 minutes ([2]; Table 4, 1000 mg/kg oral): 3 | Number Protected of Four Mice Tested at 120 minutes ([2]; Table 4, 1000 mg/kg oral): 4 | anticonvulsant activity when administered orally [2]: displayed anticonvulsant activity when administered orally

From patent US7265155B2 (NBS Pharmaceuticals, Inc., priority 1996, dated 2007)
